From US20260166039A1 (SCHRÖDINGER, INC., priority 2022, published 2026)
Where two headings read alike, the source gives them in different places.

Assays:
[1] = test system: phosphorylation of Cdc2 Y15 (Wee1 substrate) in A427 cells; assay: Phosphorylated Cdc2 MSD Electrochemiluminescence Assay; type: cell-based; details: Homo sapiens
How it was run: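 A427 cells (RPMI 1640, 10% FBS) treated 20 h after plating with 3-fold serial compound dilutions, in duplicate, 37 °C, 5% CO2; total incubation 6 h. Lysate Cdc2 pY15 read by MSD electrochemiluminescence sandwich immunoassay; % remaining signal normalised to DMSO (high) and reference Wee1 inhibitor (low) controls.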

Wee1 kinase domain = molecular target: T1, Wee1 kinase domain (Homo sapiens, UniProt P30291); assay: Wee1 Kinase Biochemical Assay (ADP-Glo); details: 15 uM ATP
T1 construct: Wee1 kinase domain was purchased from Carna (catalog #05-177); purchased Carna 05-177
How it was run: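 Poly(Lys,Tyr 4:1) phosphorylation by the kinase domain is followed as ADP output (ADP-Glo) after 4 h at 25 °C, with ATP at 15 uM. Values are percent inhibition between vehicle and full-inhibition controls.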

[2] = A-427, class symbols, read-out: A427 pCDC2 MSD IC50
[3] = class symbols, 1 nM Wee1 enzyme, 4 hours at 25° C.

T1 sequence (P30291 299-569 limits assumed): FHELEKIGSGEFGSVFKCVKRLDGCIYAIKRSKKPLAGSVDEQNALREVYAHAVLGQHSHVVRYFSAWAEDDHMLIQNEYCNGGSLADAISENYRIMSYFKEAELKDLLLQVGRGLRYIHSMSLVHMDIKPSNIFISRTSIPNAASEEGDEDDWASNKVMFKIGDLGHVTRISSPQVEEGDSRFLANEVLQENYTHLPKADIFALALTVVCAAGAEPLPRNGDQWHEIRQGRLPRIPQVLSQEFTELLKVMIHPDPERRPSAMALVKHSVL

SMILES	IC50 [1, 2] [nM]	IC50 (Wee1 kinase domain; [3]) [nM]	IC50 ([1]; A-427, pCDC2 MSD) [nM]	IC50 (Wee1 kinase domain; Wee1 kinase domain, ADP-Glo) [nM]	further results
CNCc1cccc(N2c3nc(Nc4ccc(N5C[C@H]6C[C@@H](C5)O6)cc4)ncc3[C@@]3(C)COC(C)(C)C[C@@H]23)n1 (single isomer, unassigned) [Example 481]	100 to 1000	< 10	–	–	–
CN(C)C(=O)c1ccc(Nc2ncc3c(n2)N(c2cccc(N=S(C)(C)=O)n2)[C@@H]2CC(C)(C)OC[C@]32C)cc1 (single isomer, unassigned) [Example 141]	–	–	< 100	< 10	–
CN1CCN(c2ccc(Nc3ncc4c(n3)N(c3nccs3)[C@@H]3CC(C)(C)OC[C@]43C)cc2)CC1 (single isomer, unassigned) [Example 726]	100 to 1000	< 10	–	–	–
CN1CC[C@@H]2CN(c3ccc(Nc4ncc5c(n4)N(c4cccc(N=S(C)(C)=O)n4)[C@@H]4CC(C)(C)OC[C@]54C)cc3)C[C@@H]21 (single isomer, unassigned) [Example 502]	< 100	< 10	–	–	–
CN1CCN(c2ccc(Nc3ncc4c(n3)N(c3ccn(C5COC5)n3)[C@@H]3CC(C)(C)OC[C@]43C)cc2)CC1 (single isomer, unassigned) [Example 742]	1000 to 10000	< 10	–	–	–
CN1[C@@H]2C[C@H]1CN(c1ccc(Nc3ncc4c(n3)N(c3cccc(C(C)(C)O)n3)[C@@H]3CC(C)(C)OC[C@]43C)cc1)C2 (single isomer, unassigned) [Example 441]	100 to 1000	< 10	–	–	–
CC1(C)C[C@H]2N(c3cccc(N=S(C)(C)=O)n3)c3nc(Nc4ccc(C5CNC5)c(F)c4)ncc3[C@@]2(C)CO1 (single isomer, unassigned) [Example 183]	–	–	100 to 1000	< 10	–
CC1(C)C[C@H]2N(c3cccc([C@@H]4COCCN4)n3)c3nc(Nc4ccc(N5CCOCC5)cc4)ncc3[C@@]2(C)CO1 [Example 734, (4bR,8aR)-4b,7,7-trimethyl-9-(6-((R)-morpholin-3-yl)pyridin-2-yl)-N-(4-morpholinophenyl)-4b,5,7,8,8a,9-hexahydropyrano[3′,4′:4,5]pyrrolo[2,3-d]pyrimidin-2-amine]	< 100	< 10	–	–	–
CC1(C)C[C@H]2N(c3cccc(N=S(C)(C)=O)n3)c3nc(Nc4cncc(F)c4)ncc3[C@@]2(C)CO1 (single isomer, unassigned) [Example 369]	–	–	100 to 1000	< 10	–
CC1(C)C[C@H]2N(c3cccc(N=S(C)(C)=O)n3)c3nc(Nc4ccc5nccn5c4)ncc3[C@@]2(C)CO1 (single isomer, unassigned) [Example 504]	100 to 1000	< 10	–	–	–
CC(C)n1ccc(N2c3nc(Nc4ccc(N5CCN(C)CC5)cc4)ncc3[C@@]3(C)COC(C)(C)C[C@@H]23)n1 (single isomer, unassigned) [Example 721]	100 to 1000	< 10	–	–	–
CC1(C)C[C@H]2N(c3cccc(C4CCNCC4)n3)c3nc(Nc4ccc(N5CCOCC5)cc4)ncc3[C@@]2(C)CO1 (single isomer, unassigned) [Example 531]	100 to 1000	< 10	–	–	–
CN1CCC[C@@H]1c1ccc(Nc2ncc3c(n2)N(c2cccc(N=S(C)(C)=O)n2)[C@@H]2CC(C)(C)OC[C@]32C)cn1 (single isomer, unassigned) [Example 210]	–	–	100 to 1000	< 10	–
CN1CC2CC1CN2c1ccc(Nc2ncc3c(n2)N(c2cccc(C(F)F)n2)[C@@H]2CC(C)(C)OC[C@]32C)cc1 (stereo in doubt) [Example 814, (4bR,8aR)-9-(6-(difluoromethyl)pyridin-2-yl)-4b,7,7-trimethyl-N-(4-((1R,4R)-5-methyl-2,5-diazabicyclo[2.2.1]heptan-2-yl)phenyl)-4b,5,7,8,8a,9-hexahydropyrano[3′,4′:4,5]pyrrolo[2,3-d]pyrimidin-2-amine]	–	–	–	–	IC50 ([1]; A-427, read-out: A427 pCDC2 MSD IC50): 100 to 1000 nM; IC50 (Wee1 kinase domain; 1 nM Wee1 enzyme, 4 hours at 25° C): < 10 nM

Now from value to compound, other results behind:

IC50 [1, 2] [nM]	IC50 (Wee1 kinase domain; [3]) [nM]	IC50 ([1]; A-427, pCDC2 MSD) [nM]	IC50 (Wee1 kinase domain; Wee1 kinase domain, ADP-Glo) [nM]	SMILES	further results
100 to 1000	< 10	–	–	CNCc1cccc(N2c3nc(Nc4ccc(N5CCN(C)CC5)c(C)c4)ncc3[C@@]3(C)COC(C)(C)C[C@@H]23)n1 (single isomer, unassigned) [Example 448]	–
–	–	100 to 1000	< 10	C[C@H]1COC(=O)N1c1cccc(N2c3nc(Nc4ccc([C@@H]5CCNC5)nc4)ncc3[C@@]3(C)COC(C)(C)C[C@@H]23)n1 (single isomer, unassigned) [Example 257]	–
–	–	100 to 1000	< 10	Cc1cc(Nc2ncc3c(n2)N(c2cccc(N4C(=O)OC[C@@H]4C)n2)[C@@H]2CC(C)(C)OC[C@]32C)ccc1O[C@H]1CCN(C)C1 (single isomer, unassigned) [Example 345]	–
–	–	100 to 1000	< 10	Cc1cc(Nc2ncc3c(n2)N(c2cccc(N=S(C)(C)=O)n2)[C@@H]2CC(C)(C)OC[C@]32C)ccc1[C@@H]1CCNC1 (single isomer, unassigned) [Example 143]	–
100 to 1000	< 10	–	–	CN1C[C@H]2C[C@@H]1CN2c1ccc(Nc2ncc3c(n2)N(c2cccc(N4CCCC4=O)n2)[C@@H]2CC(C)(C)OC[C@]32C)cc1F [Example 638, 1-(6-((4bR,8aR)-2-((3-fluoro-4-((1R,4R)-5-methyl-2,5-diazabicyclo[2.2.1]heptan-2-yl)phenyl)amino)-4b,7,7-trimethyl-4b,7,8,8a-tetrahydropyrano[3′,4′:4,5]pyrrolo[2,3-d]pyrimidin-9(5H)-yl)pyridin-2-yl)pyrrolidin-2-one]	–
100 to 1000	< 10	–	–	CN1CCC(c2cccc(N3c4nc(Nc5ccc(N6CCOCC6)cc5)ncc4[C@@]4(C)COC(C)(C)C[C@@H]34)n2)CC1 (single isomer, unassigned) [Example 533]	–
100 to 1000	< 10	–	–	CN1CCC(c2cncc(Nc3ncc4c(n3)N(c3cccc(N=S(C)(C)=O)n3)[C@@H]3CC(C)(C)OC[C@]43C)c2)CC1 (single isomer, unassigned) [Example 485]	–
100 to 1000	< 10	–	–	C[C@H]1COC(=O)N1c1cccc(N2c3nc(Nc4ccn(C5CCOCC5)c(=O)c4)ncc3[C@@]3(C)COC(C)(C)C[C@@H]23)n1 (single isomer, unassigned) [Example 781]	–
100 to 1000	< 10	–	–	CN1C[C@@H]2CN(c3ccc(Nc4ncc5c(n4)N(c4cccc(N6CCOC6=O)n4)[C@@H]4CC(C)(C)OC[C@]54C)cc3)C[C@@H]2C1 [Example 692, 3-(6-((4bR,8aR)-4b,7,7-trimethyl-2-((4-((3aR,6aS)-5-methylhexahydropyrrolo[3,4-c]pyrrol-2(1H)-yl)phenyl)amino)-4b,7,8,8a-tetrahydropyrano[3′,4′:4,5]pyrrolo[2,3-d]pyrimidin-9(5H)-yl)pyridin-2-yl)oxazolidin-2-one]	–
–	–	100 to 1000	< 10	Cc1cc(Nc2ncc3c(n2)N(c2cccc(C(C)(C)O)n2)[C@@H]2CC(C)(C)OC[C@]32C)ccc1C1CCN(C)CC1 (single isomer, unassigned) [Example 8]	–
–	–	< 100	< 10	Cc1cc(Nc2ncc3c(n2)N(c2cccc(N=S(C)(C)=O)n2)[C@@H]2CC(C)(C)OC[C@]32C)ccc1C1CCN(C)CC1 (single isomer, unassigned) [Example 104]	–
< 100	< 10	–	–	CN1CC[C@H]2CN(c3ccc(Nc4ncc5c(n4)N(c4cccc(N6CCCC6=O)n4)[C@@H]4CC(C)(C)OC[C@]54C)cc3)C[C@H]21 [Example 688, 1-(6-((4bR,8aR)-4b,7,7-trimethyl-2-((4-((3aS,6aS)-1-methylhexahydropyrrolo[3,4-b]pyrrol-5(1H)-yl)phenyl)amino)-4b,7,8,8a-tetrahydropyrano[3′,4′:4,5]pyrrolo[2,3-d]pyrimidin-9(5H)-yl)pyridin-2-yl)pyrrolidin-2-one]	–
–	–	100 to 1000	< 10	C[C@H]1COC(=O)N1c1cccc(N2c3nc(Nc4ccc(OC5CNC5)nc4)ncc3[C@@]3(C)COC(C)(C)C[C@@H]23)n1 (single isomer, unassigned) [Example 343]	–
–	–	100 to 1000	< 10	Cc1cc(Nc2ncc3c(n2)N(c2cccc(N4C(=O)OC[C@@H]4C)n2)[C@@H]2CC(C)(C)OC[C@]32C)ccc1C1CCN(C)CC1 (single isomer, unassigned) [Example 238]	–
100 to 1000	< 10	–	–	C[C@H]1CCC(=O)N1c1cccc(N2c3nc(Nc4ccc(N5CCN(C)CC5)cc4)ncc3[C@@]3(C)COC(C)(C)C[C@@H]23)n1 (single isomer, unassigned) [Example 583]	–
100 to 1000	< 10	–	–	CN1C[C@@H]2C[C@H]1CN2c1ccc(Nc2ncc3c(n2)N(c2cccc(N4CCOC4=O)n2)[C@@H]2CC(C)(C)OC[C@]32C)cc1 (single isomer, unassigned) [Example 595]	–
100 to 1000	< 10	–	–	CN1CCN(c2ccc(Nc3ncc4c(n3)N(c3cccc(C5CC5)n3)[C@@H]3CC(C)(C)OC[C@]43C)cc2)CC1 (single isomer, unassigned) [Example 774]	–
–	–	< 100	< 10	[2H]C([2H])([2H])N1CCC(c2ccc(Nc3ncc4c(n3)N(c3cccc(N=S(C)(C)=O)n3)[C@@H]3CC(C)(C)OC[C@]43C)cc2)CC1 (single isomer, unassigned) [Example 162]	–
100 to 1000	< 10	–	–	CN=[S@](C)(=O)c1cccc(N2c3nc(Nc4ccc(C5CCN(C)CC5)cc4)ncc3[C@@]3(C)COC(C)(C)C[C@@H]23)n1 (single isomer, unassigned) [Example 751]	–
